Measurements taken from US12516365B2, “Biocide compositions compatible with enzyme biosensors and methods of use thereof” (priority 2019, dated 2026).
Structures can show the parent of a compound that is named as a salt.

Experiments:
Creatinine Sensor = experiment: Screen of biocides/antibiotics for compatibility with the Creatinine Sensor (Creatinine Sensor Slope loss); assay type: biochemical; parameters: key: “Fail” indicates the compound inhibited Creatinine Sensor Slope; “Pass” indicates there was no significant effect on Creatinine Sensor Slope
From the text: In one embodiment, a biocide candidate may be injected into, for example, one PCS-B bag after about one week of cartridge use life, and then any changes in sensor slopes over the next week or two, especially any increase in the rate of slope decrease, may be observed. During this time, aqueous solutions with high substrate concentrations may be tested to ensure that enzymes are still able to convert all substrate to products in the allotted time (e.g., about one minute).
In one embodiment, multiple cartridges assembled with, for example, PCS-B bags containing a candidate biocide may be tested for a prolonged period of time (e.g., 20-30 days) that corresponds to the useful cartridge lifespan (which may vary depending upon the cartridge type tested). In this case the cartridge starts the hydration process, which generally lasts about 50 minutes, with the biocide already in the solution bag (e.g., PCS-B). […] Over the course of 3 weeks, in addition to running aqueous controls that have established acceptance ranges, whole human blood may also be tested in order to simulate normal customer use.
A variety of candidate molecules were screened as described above to determine whether they were compatible with the Creatinine Sensor, i.e. whether there was a significant effect on Creatinine Sensor Slope.

[1] = system: ChemSTAT creatinine sensor (creatininase, creatinase and sarcosine oxidase); experiment: Creatinine and creatine sensor slopes over time with biocide in Process Control Solution (PCS); assay type: biochemical; settings: for Creatinine and creatine slopes over time after addition to PCS: 20 mg/L added to PCS-B after stable slopes for more than one week
Protocol: FIGS. 2A-2B show plots of creatinine and creatine slopes over time in the presence of either MIT or polymyxin B, respectively. […] Stable slopes were first established for more than one week before 300 mg/L MIT (methyl isothiazolinone) or 20 mg/L polymyxin B was added to the Process Control Solution (PCS) B (e.g., PCS-B).
The present disclosure discovered that Polymyxin B and Polymyxin E (aka, Colistin Sulfate) were compatible with a ChemSTAT creatinine sensor that utilized two hydrolase class enzymes (e.g., creatininase and creatinase) and sarcosine oxidase to measure creatinine. When included in Process Control Solutions (PCS) at a concentration sufficient to kill microbes (e.g., bacteria, in particular gram negative rods including various strains of Pseudomonas), the slope of the sensor remained high enough over 21 days to continually allow accurate measurement of creatinine in human blood and aqueous control solutions even at the upper end of the linear range where reduced enzyme activity could result in low recovery of substrate.
MIT is the most common biocide used in the blood gas industry for microbial contamination, and is known to be compatible with oxidase class enzymes such as glucose oxidase and lactate oxidase.
Importantly, the creatinine slope performed equivalently with colistin in PCS bags (see FIG. 3, left) to cartridges with PCS bags protected only with gentamicin (see FIG. 3, right). In this plot, no bacterial contamination was observed on control or test biocide PCS bags nor was there any evidence of enzyme inhibition and therefore performance is similar.

| Molecule | Pass/Fail (Creatinine Sensor Slope Loss) (Creatinine Sensor) | Inhibition/inactivation of creatininase, creatinase and sarcosine oxidase [1] | further results |
| --- | --- | --- | --- |
| CNC1C(O)[C@@H](O[C@H]2C(N)C[C@H](N)C(O[C@H]3OC(C(C)N)CCC3N)C2O)OC[C@]1(C)O (some centres unmarked) [Gentamicin sulfate] | Pass | – | Creatinine slope performance over time in PCS ([1]; full use life of three weeks): maintained sufficient creatinine slope |
| Polymyxin B | Pass | – | Creatinine and creatine slopes over time after addition to PCS [1]: no effect; Creatinine and creatine slopes over time after addition to PCS ([1]; listed as polymyxin B): does not causes a rapid decay; Compatibility with ChemSTAT creatinine sensor ([1]; in PCS at a concentration sufficient to kill microbes, slope over 21 days): compatible |
| C[C@H]1COc2c(N3CCN(C)CC3)c(F)cc3c(=O)c(C(=O)O)cn1c23 [Levofloxacin] | Pass | – | – |
| CC1(C)NC(=O)NC1=O [Dantogard Plus, dimethylhydantoin] | Fail | irreversibly inhibited | – |
| CCN1CCN(C(=O)N[C@@H](C(=O)N[C@@H]2C(=O)N3C(C(=O)O)C(C)(C)S[C@H]23)c2ccccc2)C(=O)C1=O (some centres unmarked) [Piperacillin] | Pass | – | – |
| Oc1ccccc1-c1ccccc1 [2-phenyl phenol] | Fail | – | – |
| Oc1cccc2cccnc12 [8-hydroxyquinoline] | Fail | – | – |
| COc1cc(Cc2cnc(N)nc2N)cc(OC)c1OC [Trimethoprim] | Fail | irreversibly inhibited | – |
| NCC[C@H](O)C(=O)N[C@@H]1C[C@H](N)[C@@H](O[C@H]2O[C@H](CN)[C@@H](O)[C@H](O)[C@H]2O)[C@H](O)[C@H]1O[C@H]1O[C@H](CO)[C@@H](O)[C@H](N)[C@H]1O [Amikacin sulfate] | Pass | – | – |
| CC(C)(O/N=C(\C(=O)N[C@@H]1C(=O)N2C(C(=O)[O-])=C(C[n+]3ccccc3)CS[C@H]12)c1csc(N)n1)C(=O)O [Ceftazidime] | Pass | – | – |
| O=c1[nH]sc2ccccc12 [BIT, benisothiazolinone] | Fail | irreversibly inhibited | – |
| CCn1cc(C(=O)O)c(=O)c2cc(F)c(N3CCNCC3)cc21 [Norfloxacin] | Fail | irreversibly inhibited | – |
| CN[C@@H]1[C@H](O)[C@H](NC)[C@H]2O[C@@]3(O)C(=O)C[C@@H](C)O[C@H]3O[C@@H]2[C@H]1O [Spectinomycin] | Pass | – | – |
| Cn1sc2ccccc2c1=O [MBIT, methylbenzisothiazolinone] | Fail | irreversibly inhibited | – |
| Cn1sc(Cl)cc1=O [Cl-MIT, chlorinatedmethyl- isonthiazolinone] | Fail | irreversibly inhibited | – |
| Streptomycin | Pass | – | – |
| CCCCNC(=O)OCC#CI [Omacide IPBC, iodopropynylbutylcarbamate] | Fail | irreversibly inhibited | – |
| CC1(C)S[C@@H]2[C@H](NC(=O)C(C(=O)O)c3ccccc3)C(=O)N2C1C(=O)O (some centres unmarked) [Carbenicillin disodium] | Pass | – | – |
